Laboratory results: ChEMBL document CHEMBL1201862, “PubChem BioAssay data set” (2004)
Activity calls are given as the source filed them.

How the values were obtained:
[1] = Counterscreen for inhibitors of Trypanosoma brucei methionyl tRNA synthetase (MetRS): Luminescence-based cell-based high throughput dose response assay to identify compounds that are cytotoxic to Jurkat human T lymphocyte cells.; assay type: functional
[2] = target: T1, Methionyl-tRNA synthetase, putative (Trypanosoma brucei brucei, UniProt Q38C91); assay type: functional, Trypanosoma brucei brucei strain 927/4 GUTat10.1
T1 sequence (Q38C91 whole entry): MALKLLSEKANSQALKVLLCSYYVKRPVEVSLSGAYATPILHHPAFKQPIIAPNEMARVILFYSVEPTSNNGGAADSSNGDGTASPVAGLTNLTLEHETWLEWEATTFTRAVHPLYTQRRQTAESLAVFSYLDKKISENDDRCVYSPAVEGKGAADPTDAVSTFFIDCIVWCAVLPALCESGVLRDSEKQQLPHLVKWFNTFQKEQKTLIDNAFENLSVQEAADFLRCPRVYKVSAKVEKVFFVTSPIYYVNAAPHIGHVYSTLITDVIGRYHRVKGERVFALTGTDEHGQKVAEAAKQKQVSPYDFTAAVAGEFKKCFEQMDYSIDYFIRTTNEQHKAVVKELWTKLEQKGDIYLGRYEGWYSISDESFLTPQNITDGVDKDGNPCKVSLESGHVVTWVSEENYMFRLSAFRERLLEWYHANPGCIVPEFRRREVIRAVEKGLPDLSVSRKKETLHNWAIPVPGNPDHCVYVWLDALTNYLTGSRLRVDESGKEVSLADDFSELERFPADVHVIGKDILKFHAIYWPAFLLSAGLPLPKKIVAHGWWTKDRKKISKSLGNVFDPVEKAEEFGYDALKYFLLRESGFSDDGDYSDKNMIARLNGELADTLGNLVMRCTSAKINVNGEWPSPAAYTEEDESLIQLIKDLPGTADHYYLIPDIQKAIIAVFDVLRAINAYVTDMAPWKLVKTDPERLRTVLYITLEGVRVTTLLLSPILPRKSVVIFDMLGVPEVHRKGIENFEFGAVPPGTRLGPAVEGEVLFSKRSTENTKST

[3] = target: T1, Methionyl-tRNA synthetase, putative; assay type: functional, Trypanosoma brucei brucei strain 927/4 GUTat10.1; remark: listed apart in the source
[4] = target: T2, Apoptotic protease-activating factor 1 (Homo sapiens, UniProt O14727); assay type: functional
T2 sequence (O14727 whole entry): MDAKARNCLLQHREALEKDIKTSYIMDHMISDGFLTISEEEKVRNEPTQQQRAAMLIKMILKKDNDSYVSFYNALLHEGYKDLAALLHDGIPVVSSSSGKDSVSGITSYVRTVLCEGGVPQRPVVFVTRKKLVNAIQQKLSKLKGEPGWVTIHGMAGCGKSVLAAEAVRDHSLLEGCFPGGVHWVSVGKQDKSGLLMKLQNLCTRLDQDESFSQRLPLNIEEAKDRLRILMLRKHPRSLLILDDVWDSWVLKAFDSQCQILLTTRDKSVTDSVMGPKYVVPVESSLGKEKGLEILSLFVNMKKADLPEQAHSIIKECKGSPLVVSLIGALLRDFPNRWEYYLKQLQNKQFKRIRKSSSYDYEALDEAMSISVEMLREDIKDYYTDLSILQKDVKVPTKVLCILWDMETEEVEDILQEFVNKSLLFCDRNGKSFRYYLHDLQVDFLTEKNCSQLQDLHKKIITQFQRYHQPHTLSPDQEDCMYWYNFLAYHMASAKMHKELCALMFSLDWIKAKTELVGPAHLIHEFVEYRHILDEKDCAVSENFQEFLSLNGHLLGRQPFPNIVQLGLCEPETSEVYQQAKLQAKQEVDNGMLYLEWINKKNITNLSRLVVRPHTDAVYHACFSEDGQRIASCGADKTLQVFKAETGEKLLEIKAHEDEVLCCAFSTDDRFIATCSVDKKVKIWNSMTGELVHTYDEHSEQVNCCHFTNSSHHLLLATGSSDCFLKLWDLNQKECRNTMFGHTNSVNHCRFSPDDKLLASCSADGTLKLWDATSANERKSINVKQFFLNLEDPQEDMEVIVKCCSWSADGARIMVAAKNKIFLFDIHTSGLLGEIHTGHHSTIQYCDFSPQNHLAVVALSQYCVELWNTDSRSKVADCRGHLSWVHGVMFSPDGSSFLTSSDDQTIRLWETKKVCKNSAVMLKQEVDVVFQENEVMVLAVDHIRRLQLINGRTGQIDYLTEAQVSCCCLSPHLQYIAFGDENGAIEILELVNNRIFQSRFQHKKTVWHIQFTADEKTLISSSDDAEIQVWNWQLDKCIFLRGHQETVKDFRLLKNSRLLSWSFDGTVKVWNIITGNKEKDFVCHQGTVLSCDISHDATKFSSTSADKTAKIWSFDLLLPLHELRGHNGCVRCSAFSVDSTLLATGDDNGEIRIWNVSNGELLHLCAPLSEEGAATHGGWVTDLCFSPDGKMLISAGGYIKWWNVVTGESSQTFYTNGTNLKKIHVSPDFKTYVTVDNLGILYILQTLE

[5] = target: T3, Adenosylmethionine-8-amino-7-oxononanoate aminotransferase (Mycobacterium tuberculosis, UniProt P9WQ81); experiment: Mycobacterium tuberculosis BioA enzyme inhibitor Measured in Biochemical System Using Plate Reader - 2163-02_Inhibitor_Dose_CherryPick_Activity.; assay type: functional, Mycobacterium tuberculosis UT205
T3 sequence (P9WQ81 whole entry): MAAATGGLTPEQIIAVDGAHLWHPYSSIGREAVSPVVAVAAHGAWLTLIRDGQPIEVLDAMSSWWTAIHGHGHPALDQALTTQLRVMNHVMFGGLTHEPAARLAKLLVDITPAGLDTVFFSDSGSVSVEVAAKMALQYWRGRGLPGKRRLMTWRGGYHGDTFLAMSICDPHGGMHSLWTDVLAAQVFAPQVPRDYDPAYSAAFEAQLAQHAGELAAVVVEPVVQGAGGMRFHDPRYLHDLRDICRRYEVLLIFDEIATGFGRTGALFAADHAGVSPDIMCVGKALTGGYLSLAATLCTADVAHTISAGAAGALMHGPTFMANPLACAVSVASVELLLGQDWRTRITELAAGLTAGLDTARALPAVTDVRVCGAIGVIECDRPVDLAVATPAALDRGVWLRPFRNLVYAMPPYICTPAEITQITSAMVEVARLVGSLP

Protein Tat = target: T4, Protein Tat (Human immunodeficiency virus type 1 group M subtype B (isolate HXB2)(HIV-1), UniProt P04608); assay type: functional;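 further: tat binding to TAR RNA read out by fluorescence polarization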
T4 sequence (P04608 whole entry): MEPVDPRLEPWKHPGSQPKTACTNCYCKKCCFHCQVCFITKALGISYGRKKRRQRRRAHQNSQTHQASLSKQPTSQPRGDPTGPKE

fMet-Leu-Phe receptor = target: T5, fMet-Leu-Phe receptor (Homo sapiens, UniProt P21462); experiment: formyl peptide receptor binders – dose response (AID 519); assay type: functional
T5 sequence (P21462 whole entry): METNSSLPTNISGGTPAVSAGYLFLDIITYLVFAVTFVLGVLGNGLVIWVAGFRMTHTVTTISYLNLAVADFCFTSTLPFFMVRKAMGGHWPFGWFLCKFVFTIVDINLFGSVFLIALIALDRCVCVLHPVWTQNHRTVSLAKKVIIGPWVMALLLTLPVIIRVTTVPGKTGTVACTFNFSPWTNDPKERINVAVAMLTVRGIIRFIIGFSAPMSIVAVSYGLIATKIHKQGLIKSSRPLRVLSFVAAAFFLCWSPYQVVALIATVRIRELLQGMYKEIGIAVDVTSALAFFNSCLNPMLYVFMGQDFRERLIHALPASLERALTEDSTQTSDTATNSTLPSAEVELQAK

Albumin = Albumin (Bos taurus, UniProt P02769); experiment: Counterscreen for inhibitors of T-cell receptor (TCR)-CD3 interaction: Fluorescence-based biochemical high throughput dose response assay to identify inhibitors of T-cell receptor (TCR)-CD3 interaction using a TAMRA-labeled BSA probe.; assay type: functional
H9c2 = experiment: cells; assay type: functional, cell-based; conditions: Rattus norvegicus, H9c2, Myocardium;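 further: confirmatory concentration-response retest of ultra-high-throughput screening hits for modulation of myocardial damage; cell death induced by hydrogen peroxide oxidative stress; compound pretreatment for 60 min then peroxide exposure for 2 h; potency is for protecting the cells against peroxide damage rather than for killing them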
Streptococcus = experiment: GAS UMAA2166 growth inhibition – luminescence, BacTiterGlo, counter-screen for streptokinase expression inhibitor project, dose response (AID 1915); assay type: functional, organism-based;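 further: potency for reduction of bacterial viability or growth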
[6] = tested on: Streptococcus sp. 'group A'; experiment: Streptococcus pyogenes SK(-)GAS viability under kanamycin – luminescence, BacTiterGlo, confirmation, counter-screen for streptokinase expression inhibitor project, dose response (AID 1900); assay type: functional, organism-based
Streptokinase A = target: T6, Streptokinase A (Streptococcus pyogenes serotype M1, UniProt P10520); experiment: viability-normalized secreted streptokinase activity reduction – plasminogen activation absorbance, OD405, dose response (AID 1914); assay type: functional, Streptococcus pyogenes M1 GAS;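 further: secreted streptokinase activity via plasminogen activation per viability signal from cell pellet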
T6 sequence (P10520 whole entry): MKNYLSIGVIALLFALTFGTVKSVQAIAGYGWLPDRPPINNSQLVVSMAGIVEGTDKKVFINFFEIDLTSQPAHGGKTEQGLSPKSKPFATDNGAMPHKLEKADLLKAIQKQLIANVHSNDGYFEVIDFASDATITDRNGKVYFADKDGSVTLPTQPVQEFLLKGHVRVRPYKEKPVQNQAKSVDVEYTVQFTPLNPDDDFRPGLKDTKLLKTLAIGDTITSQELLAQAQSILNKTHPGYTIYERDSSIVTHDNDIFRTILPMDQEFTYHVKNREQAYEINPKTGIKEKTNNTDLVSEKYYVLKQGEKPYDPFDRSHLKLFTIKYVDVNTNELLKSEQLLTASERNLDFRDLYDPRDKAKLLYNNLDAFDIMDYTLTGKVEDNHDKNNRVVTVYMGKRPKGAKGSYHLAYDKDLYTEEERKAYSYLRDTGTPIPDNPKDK

[7] = intracellular Trypanosoma cruzi inhibitors in host cells – cell-based, plate reader, cherry-pick samples, set 3, dose response (AID 651818); assay type: functional;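 further: compounds incubated with infected cells for about four days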
[8] = target: Potassium channel subfamily K member 9 (Homo sapiens, UniProt Q9NPC2); experiment: KCNK9 flux blockade, concentration-response – cell-based, FluxOR thallium flux, selectivity assay for TASK1 inhibitor project, SAR follow-up (AID 652211); assay type: functional;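 further: potency is for inhibitors of the channel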
Cytochrome P450 2C9 = Cytochrome P450 2C9 (Homo sapiens, UniProt P11712)
[9] = toxicity to human HepG2 hepatoma cells – cell-based, plate reader, dry powder samples, cytotoxicity control, dose response (AID 1159569); assay type: functional;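 further: inhibitor potency with signal falling toward the positive control level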
[10] = growth inhibition of PfATP4-mutant resistant parasites – NITD609-resistant line, SYBR Green, dry powder, dose response (AID 1159571); assay type: functional, cell-based;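 further: parasites synchronized at ring stage by sorbitol before testing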
[11] = P. falciparum Dd2 growth inhibitors, dose response, SYBR Green, cherry-picked samples (AID 1159567); assay type: functional, cell-based
[12] = growth inhibition of yeast DHODH-expressing 3D7 parasites – SYBR Green, dry powder samples, dose response (AID 1159570); assay type: functional, cell-based;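 further: parasite growth measured after 72 hours of compound exposure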
[13] = Dd2 malaria parasite growth inhibition potency – SYBR Green, dry powder samples, dose response (AID 1159566); assay type: functional, cell-based;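 further: potency for growth inhibition with lower SYBR green DNA signal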

Sequence of Albumin (P02769 whole entry): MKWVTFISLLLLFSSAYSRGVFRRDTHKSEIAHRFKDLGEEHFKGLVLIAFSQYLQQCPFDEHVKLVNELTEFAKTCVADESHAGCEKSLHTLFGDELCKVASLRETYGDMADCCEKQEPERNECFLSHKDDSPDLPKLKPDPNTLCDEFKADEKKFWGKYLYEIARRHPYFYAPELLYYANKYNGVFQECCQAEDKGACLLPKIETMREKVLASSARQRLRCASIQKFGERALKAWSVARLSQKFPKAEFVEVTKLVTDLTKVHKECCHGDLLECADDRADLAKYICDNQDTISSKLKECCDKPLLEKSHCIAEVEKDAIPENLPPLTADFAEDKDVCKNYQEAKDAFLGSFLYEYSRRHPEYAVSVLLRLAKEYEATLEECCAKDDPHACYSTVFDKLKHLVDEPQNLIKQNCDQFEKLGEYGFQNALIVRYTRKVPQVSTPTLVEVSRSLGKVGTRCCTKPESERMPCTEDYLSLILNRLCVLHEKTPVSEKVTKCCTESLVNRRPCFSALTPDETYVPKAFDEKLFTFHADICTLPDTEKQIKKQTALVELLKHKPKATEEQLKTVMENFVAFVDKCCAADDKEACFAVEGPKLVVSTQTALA
Sequence of Potassium channel subfamily K member 9 (Q9NPC2 whole entry): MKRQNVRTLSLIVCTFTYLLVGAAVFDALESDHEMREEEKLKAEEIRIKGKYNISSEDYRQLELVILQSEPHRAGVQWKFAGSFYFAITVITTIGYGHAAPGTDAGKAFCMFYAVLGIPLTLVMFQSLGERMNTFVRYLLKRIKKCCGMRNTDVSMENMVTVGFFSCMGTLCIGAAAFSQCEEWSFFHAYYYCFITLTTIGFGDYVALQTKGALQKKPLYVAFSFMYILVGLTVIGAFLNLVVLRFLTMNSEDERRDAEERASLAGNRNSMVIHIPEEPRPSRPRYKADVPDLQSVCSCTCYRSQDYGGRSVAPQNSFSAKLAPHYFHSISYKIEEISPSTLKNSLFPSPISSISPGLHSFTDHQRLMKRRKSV
Sequence of Cytochrome P450 2C9 (P11712 whole entry): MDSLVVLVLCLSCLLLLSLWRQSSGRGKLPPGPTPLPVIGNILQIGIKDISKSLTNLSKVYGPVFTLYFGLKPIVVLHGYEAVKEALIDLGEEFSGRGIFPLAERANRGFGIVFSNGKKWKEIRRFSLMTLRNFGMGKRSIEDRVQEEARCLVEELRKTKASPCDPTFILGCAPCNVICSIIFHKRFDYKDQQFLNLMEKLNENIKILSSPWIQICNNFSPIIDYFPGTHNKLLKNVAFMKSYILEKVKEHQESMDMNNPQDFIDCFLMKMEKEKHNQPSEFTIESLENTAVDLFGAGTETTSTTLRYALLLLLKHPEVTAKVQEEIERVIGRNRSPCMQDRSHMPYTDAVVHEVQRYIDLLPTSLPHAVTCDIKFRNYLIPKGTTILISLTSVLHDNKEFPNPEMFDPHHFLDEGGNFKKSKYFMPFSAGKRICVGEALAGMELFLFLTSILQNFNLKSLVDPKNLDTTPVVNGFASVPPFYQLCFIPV

O=C(COC(=O)CCCOc1ccc(Cl)cc1Cl)NCc1ccccc1
IC50 [1]: 83.3 µM (inactive)
IC50 [2]: 16.4 µM (inactive)
IC50 [3]: 11.3 µM (inactive)

N#Cc1c(N(CCO)CCO)nc(N)c2c(N)nc3c(c12)CC(=O)N3Cc1cccs1
IC50 [4]: 20.7 µM (active)

O=C(Nc1ncc2c(n1)CC(c1cccc(Cl)c1)CC2=O)c1ccco1 (centres undefined)
AC50 [5]: 1.95 µM (active)

CCc1ccc(CC)c(S(=O)(=O)Nc2ccc(C(=O)O)c(O)c2)c1
IC50 (Protein Tat): > 100 µM (active)

O=C(NCCCN1CCN(c2ccc(F)cc2)CC1)c1cccc(N2CCCC2=O)c1
Ki (fMet-Leu-Phe receptor): > 66.7 µM (inactive)

COc1cccc(NC(=O)CN(C)CC(=O)Nc2ccc(Br)cc2)c1
IC50 [1]: 83.3 µM (inactive)
IC50 [2]: 13.2 µM (inactive)
IC50 [3]: 51.2 µM (inactive)

Cc1cc(C)c(C)c(S(=O)(=O)N2CCC(C(=O)NNC(=O)c3ccccc3O)CC2)c1C
IC50 (Albumin): > 94.1 µM (inactive)
IC50 (H9c2): 31.7 µM (inactive)
EC50 (Streptococcus): > 150 µM (not active)
EC50 [6]: 17 µM (active)
EC50 (Streptokinase A): > 150 µM (not active)

CCOc1ccc(CCNC(=O)c2cnc(C)cn2)cc1OCC
AC50 [5]: 2.54 µM (active)

COc1ccc(-c2nc3oc4cc(OC)ccc4c(=O)c3c(=O)n2Cc2ccco2)cc1
IC50 (Protein Tat): > 100 µM (active)

O=C1NC(=S)NC1=Cc1ccco1
IC50 (Albumin): > 94.1 µM (inactive)

CCc1nc2ccc(Br)cc2c(=O)n1-c1ccccc1C(F)(F)F
AC50 [5]: 0.966 µM (active)

Cc1ccc(S(=O)(=O)N2CCC(C(=O)NNC(=O)c3ccccc3O)CC2)cc1
IC50 (Albumin): > 94.1 µM (inactive)

C[C@H](CO)N1C[C@H](C)[C@H](CN(C)Cc2ccc(Oc3ccccc3)cc2)Oc2c(NC(=O)Nc3cccc4ccccc34)cccc2C1=O
AC50 [7]: 3.24 µM (active)

C[C@H]1CN([C@@H](C)CO)C(=O)Cc2cc(NC(=O)Nc3ccc(C(F)(F)F)cc3)ccc2O[C@H]1CN(C)Cc1ccc2c(c1)OCO2
AC50 [7]: 4.99 µM (active)

C[C@@H]1CN([C@H](C)CO)C(=O)Cc2cc(NS(=O)(=O)c3cccs3)ccc2O[C@@H]1CN(C)Cc1ccc(C(=O)Nc2ccccc2N)cc1
AC50 [7]: 4.03 µM (active)

CS(=O)(=O)N1[C@H](C(=O)NCc2ccncc2)[C@@H](CO)[C@@H]2Cn3c(ccc(C4=CCCCC4)c3=O)[C@@H]21
AC50 [5]: 6.52 µM (active)

C[C@@H]1CN([C@H](C)CO)C(=O)Cc2cc(NC(=O)Cc3cn(C)c4ccccc34)ccc2O[C@H]1CN(C)Cc1ccc(C(F)(F)F)cc1
AC50 [7]: 3.42 µM (active)

CC(C)Oc1ccccc1C(=O)Nc1cccc(NC(=O)c2ccccc2OC(F)(F)F)c1
IC50 [8]: 0.07 µM (active)

COc1ccccc1C(=O)Nc1cccc(NC(=O)c2ccccc2C(C)C)c1
IC50 [8]: 0.74 µM (active)

CCC(CC)C(=O)/N=c1\c2cnn(-c3ccccc3)c2[nH]c(=O)n1-c1ccccc1
Ki (fMet-Leu-Phe receptor): 49.8 µM (inactive)
AC50 (Cytochrome P450 2C9): 28.2 µM (inconclusive)

CC(C)CC#Cc1ccc([C@H]2[C@@H](CO)N3C(=O)CN(C(=O)Cc4ccccc4)C[C@H]23)cc1
AC50 [9]: 26.3 µM (active)
AC50 [10]: 1.09 µM (active)
AC50 [11]: 0.424 µM (active)
AC50 [12]: 2.02 µM (active)
AC50 [13]: 0.836 µM (active)

Cc1ccccc1S(=O)(=O)N1CC(=O)N2[C@H](CO)[C@H](c3ccc(C#CCC4CCCC4)cc3)[C@H]2C1
AC50 [9]: 26.5 µM (active)
AC50 [10]: 1.42 µM (active)
AC50 [11]: 1.9 µM (active)
AC50 [12]: 1.2 µM (active)
AC50 [13]: 0.411 µM (active)
